# Where two headings read alike, the source gives them in different places.
# Key:
# Phytophthora infestans = type: in vivo; conditions: tomatoes, preventive spray, evaluated 3 days after inoculation
# cucumber downy mildew = conditions: R. Zhang, J. Pesticide Sci., vol. 39, no. 1, 2014, pages 43-47; cited from earlier work
SMILES,Efficacy in % found (Phytophthora infestans; 0.02 ppm a.i.) [%],Efficacy in % found (Phytophthora infestans; 0.04 ppm a.i.) [%],Efficacy in % found (Phytophthora infestans; 2.5 ppm a.i.) [%],Efficacy in % found (Phytophthora infestans; 5 ppm a.i.) [%],Efficacy in % found (Phytophthora infestans; 10 ppm a.i.) [%],controlling cucumber downy mildew (cucumber downy mildew)
"CS(=O)(=O)Oc1cccc(Cl)c1C1CC(c2csc(C3CCN(C(=O)Cn4nc(C(F)F)cc4C(F)F)CC3)n2)=NO1 (racemic) [(A) fluoxapiprolin, 2-{(5RS)-3-[2-(1-{[3,5-bis(difluoromethyl)-1H-pyrazol-1-yl]acetyl}-4-piperidyl)thiazol-4-yl]-4,5-dihydroisoxazol-5-yl}-3-chlorophenyl methanesulfonate]",54,79,,,,
"COc1c(F)c(F)c(C(=O)NCc2ncc(C(F)(F)F)cc2Cl)c(F)c1F [(B) fluopimomide, N-{[3-chloro-5-(trifluoromethyl)-2-pyridyl]methyl}-2,3,5,6-tetrafluoro-4-methoxybenzamide]",,,0,0,0,highly effective
